pIC50: −log10 of the molar value.
How the values were obtained:
[1] = target: recombinant human α5β1 (Homo sapiens, UniProt P05556+P08648); experiment: In vitro binding assay (a): inhibition of binding of α5β1 integrin to a fragment of human fibronectin (Fn9-10), Origen electrochemiluminescence; conditions: geometric mean of the measured IC50 values; n = number of tests
Description: (a) In Vitro Binding Assay
The assay determined the ability of compounds to inhibit binding of α5β1 integrin to a cognate ligand, a fragment of human fibronectin. The assay used Origen technology (IGEN International) to measure the compound activity. Briefly, α5β1 integrin was coated onto epoxy-paramagnetic beads (Dynal Biotech UK, Bromborough, Wirral, CH62 3QL, UK, Catalogue No 140.11) and biotinylated-fibronectin ligand was coupled to strepatividin labeled Tag-NHS-Ester (BioVeris Corporation, Witney, Oxfordshire, OX28 4GE, UK, Catalogue No 110034). The ruthenium-labeled tag emits an electrochemiluminescence signal upon stimulation which is detected by the Origen reader. […]
20 μg of recombinant human α5β1 was coated onto 4×10(7) epoxy-paramagnetic beads according to manufacturers instructions at 4° C. for 24 hours. Integrin coating and corresponding activity was subsequently measured for each batch but typically, 25 ng of coated protein was used per assay well. […]
For the assay, 25 ng (20 ul) of a5b 1-bead suspension and 40 μl of the Fn9-10/Tag pre-incubated solution were added to each well containing 20 μl of compound or control solution. Assay plates were then incubated at room temperature for a minimum of 6 hours before being analysed on an Origen plate reader. […]

[2] = target: T1, α5β1 integrin mediated adhesion of K562 cells (Homo sapiens, UniProt P05556+P08648); experiment: In vitro cell adhesion assay (b): inhibition of adhesion of K562 cells to fibronectin fragment Fn9-10, crystal violet stain; assay type: cell-based; conditions: for pIC50: K562 cells on Fn9-10, geometric mean of the measured IC50 values, n = number of tests; for activity in the cell adhesion assay (b): K562 cells, result in words
T1 construct: host or cells: K562 human erythroleukaemia cells
Description: (b) In Vitro Cell Adhesion Assay
The assay determined the ability of compounds to inhibit the α5β1 integrin mediated adhesion of K562 cells to the ligand, a fragment of human fibronectin. The human K562 erythroleukaemia cell line (LGC Promochem, Teddington, Middlesex, UK, Catalogue No. CCL-243) was routinely maintained in RPMI 1640 medium (Sigma-Aldrich Company Ltd, Gillingham, Dorset SP8 4XT, Catalogue No. R0883) containing 10% heat-inactivated foetal calf serum (PAA lab GmbH, Pasching, Austria Catalogue No. PAA-A15-043) and 1% glutamax-1 (Invitrogen Ltd. Paisley, UK Catalogue No. 35050-038) at 37° C. with 5% CO2 at densities between 1×10^5 and 1×10^6 cells/ml.
A DNA fragment encoding the domains 9-10 (amino-acids 1325-1509) of human fibronectin (Swiss-Prot Accession No. P02751) was isolated from cDNA libraries using standard molecular biology and PCR cloning techniques. The cDNA fragment was sub-cloned into a pT7#3.3 expression vector containing a GST-epitope tag (developed at AstraZeneca; Bagnall et al., Protein Expression and Purification, 2003, 27: 1-11), and the fragment termed Fn9-10. Following expression in E. coli, the expressed protein was purified using the GST-tag using standard purification techniques.
For adhesion assay, a 96-well flat bottomed plate (Greiner Bio one ltd., Gloucester GL10 3 SX Catalogue No. 655101) was coated overnight at 4° C. with 100 μl of 20 μg/ml Fn9-10 ligand in Dulbecco's PBS (Gibco#14190-94). The plate was then washed twice with 200 μl of PBS and blocked with 100 μl of 3% BSA (SigmaA7888) in PBS for 1 hour at 37° C. The plates were then washed again 3 times with 200 μl of PBS and left empty.
Test compounds were prepared as 10 mM stock solutions in DMSO (Sigma-Aldrich Company Ltd, Gillingham, Dorset SP8 4XT Catalogue No. 154938) and serially diluted with HBSS (Hanks Buffered Salt solution (Gibco Catalogue No. 14170-088)/2% DMSO to give a range of test concentrations at twice required final concentration. Aliquots (50 μl) of each compound dilution were placed into each well of the Fn9-10 coated plates. Each plate also contained control wells: maximum adhesion signal was created using wells containing 50 μl HBSS/2% DMSO, and minimum signal corresponding to no adhesion was created using wells containing 50 μl HBSS/2% DMSO /20 mM EDTA (Sigma Catalogue No. E7889). […]
After fixation, the ethanol was flicked off to waste and 100 μl of 0.1% Crystal violet stain was added to each well, and incubated at ambient temperature for 15 minutes. […] Finally, 100 μl of deionised water was added to each well and the absorbance was determined at 590 nm on a spectrophotometer. The minimum value was subtracted from all values, and the absorbance signal was plotted against compound concentration to generate IC50 data.

T1 sequence (P08648 42-894 limits assumed): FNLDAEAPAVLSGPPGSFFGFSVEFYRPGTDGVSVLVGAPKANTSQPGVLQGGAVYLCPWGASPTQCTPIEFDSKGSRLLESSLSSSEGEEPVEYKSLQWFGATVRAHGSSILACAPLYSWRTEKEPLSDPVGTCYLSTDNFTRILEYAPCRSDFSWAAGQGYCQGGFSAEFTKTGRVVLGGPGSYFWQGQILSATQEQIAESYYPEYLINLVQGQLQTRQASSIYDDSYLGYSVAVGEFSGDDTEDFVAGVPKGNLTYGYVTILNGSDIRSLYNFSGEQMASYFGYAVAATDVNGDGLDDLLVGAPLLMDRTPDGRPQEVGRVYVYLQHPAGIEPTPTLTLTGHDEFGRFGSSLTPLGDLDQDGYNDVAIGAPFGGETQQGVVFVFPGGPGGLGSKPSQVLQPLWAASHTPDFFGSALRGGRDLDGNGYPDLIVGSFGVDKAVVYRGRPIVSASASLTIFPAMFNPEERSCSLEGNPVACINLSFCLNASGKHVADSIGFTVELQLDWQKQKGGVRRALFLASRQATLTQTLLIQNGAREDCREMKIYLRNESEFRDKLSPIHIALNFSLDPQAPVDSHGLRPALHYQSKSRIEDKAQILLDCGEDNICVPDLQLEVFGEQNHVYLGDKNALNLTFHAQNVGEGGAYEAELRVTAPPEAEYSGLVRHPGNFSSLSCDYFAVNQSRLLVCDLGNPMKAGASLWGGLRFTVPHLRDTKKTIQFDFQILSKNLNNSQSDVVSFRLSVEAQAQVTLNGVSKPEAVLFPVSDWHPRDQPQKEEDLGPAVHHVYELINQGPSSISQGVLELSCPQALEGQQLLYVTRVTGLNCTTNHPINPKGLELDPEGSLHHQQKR
T1 sequence (P08648 895-1049 partner limits assumed): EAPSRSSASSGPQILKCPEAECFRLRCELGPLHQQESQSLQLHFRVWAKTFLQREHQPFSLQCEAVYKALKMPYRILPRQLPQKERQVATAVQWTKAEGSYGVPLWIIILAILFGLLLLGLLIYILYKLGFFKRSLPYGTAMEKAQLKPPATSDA
T1 sequence (P05556 21-798): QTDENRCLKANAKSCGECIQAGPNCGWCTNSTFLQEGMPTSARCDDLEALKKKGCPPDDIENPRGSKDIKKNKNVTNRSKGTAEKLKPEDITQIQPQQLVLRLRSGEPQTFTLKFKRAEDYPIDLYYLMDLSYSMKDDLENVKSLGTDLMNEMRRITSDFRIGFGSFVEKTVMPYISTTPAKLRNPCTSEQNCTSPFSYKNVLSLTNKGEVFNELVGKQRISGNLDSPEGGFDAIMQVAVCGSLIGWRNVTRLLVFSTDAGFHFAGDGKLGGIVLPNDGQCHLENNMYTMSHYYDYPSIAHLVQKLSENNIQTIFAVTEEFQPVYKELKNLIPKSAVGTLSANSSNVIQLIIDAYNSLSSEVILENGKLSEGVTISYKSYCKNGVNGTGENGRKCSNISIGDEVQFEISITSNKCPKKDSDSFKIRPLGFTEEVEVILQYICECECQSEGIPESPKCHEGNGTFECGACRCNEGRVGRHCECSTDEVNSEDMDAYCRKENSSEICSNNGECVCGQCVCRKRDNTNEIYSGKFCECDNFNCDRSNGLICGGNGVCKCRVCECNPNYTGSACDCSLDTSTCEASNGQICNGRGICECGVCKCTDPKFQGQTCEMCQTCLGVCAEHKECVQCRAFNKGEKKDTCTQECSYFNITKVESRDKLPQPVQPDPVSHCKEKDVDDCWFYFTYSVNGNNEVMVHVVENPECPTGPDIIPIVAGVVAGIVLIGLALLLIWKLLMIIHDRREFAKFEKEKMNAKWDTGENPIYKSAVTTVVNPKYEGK
Chain of recombinant human α5β1 (P08648 42-1049): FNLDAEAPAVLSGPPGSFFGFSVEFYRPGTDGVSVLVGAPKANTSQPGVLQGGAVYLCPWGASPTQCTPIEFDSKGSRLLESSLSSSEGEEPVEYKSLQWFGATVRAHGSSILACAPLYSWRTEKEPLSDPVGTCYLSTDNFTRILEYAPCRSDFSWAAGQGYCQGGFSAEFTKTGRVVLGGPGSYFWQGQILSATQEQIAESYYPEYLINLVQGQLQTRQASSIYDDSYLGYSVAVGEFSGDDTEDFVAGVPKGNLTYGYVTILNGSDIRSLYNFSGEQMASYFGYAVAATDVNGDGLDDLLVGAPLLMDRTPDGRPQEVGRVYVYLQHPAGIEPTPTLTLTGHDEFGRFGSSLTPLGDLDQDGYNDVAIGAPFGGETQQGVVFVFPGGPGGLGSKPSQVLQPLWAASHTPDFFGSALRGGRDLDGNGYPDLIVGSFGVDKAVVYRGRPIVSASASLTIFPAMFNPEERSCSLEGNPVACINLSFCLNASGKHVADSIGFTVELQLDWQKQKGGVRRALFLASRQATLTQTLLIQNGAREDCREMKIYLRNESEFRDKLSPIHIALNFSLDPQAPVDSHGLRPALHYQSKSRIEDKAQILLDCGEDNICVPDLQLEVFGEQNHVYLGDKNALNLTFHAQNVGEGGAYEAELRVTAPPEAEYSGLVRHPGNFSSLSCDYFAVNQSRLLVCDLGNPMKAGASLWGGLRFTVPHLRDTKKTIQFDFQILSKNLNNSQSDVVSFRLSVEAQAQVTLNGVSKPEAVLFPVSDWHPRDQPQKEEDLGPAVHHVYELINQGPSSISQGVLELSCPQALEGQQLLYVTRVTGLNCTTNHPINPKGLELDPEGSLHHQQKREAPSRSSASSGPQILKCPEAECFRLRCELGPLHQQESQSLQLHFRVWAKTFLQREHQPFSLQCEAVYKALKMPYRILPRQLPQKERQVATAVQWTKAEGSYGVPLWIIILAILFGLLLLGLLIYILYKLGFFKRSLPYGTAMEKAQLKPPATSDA
Chain of recombinant human α5β1 (P05556 21-798): as the sequence (P05556 21-798) above

Row | pIC50 [1] | pIC50 [2] | Compound | activity in the cell adhesion assay (b) [2]
1 | 9.40 | 8.70 | O=C(N[C@@H](Cc1ccc(OCCc2ccc3c(n2)NCCC3)cc1)C(=O)O)c1c(Cl)cccc1Cl [Example 3, N-(2,6-dichlorobenzoyl)-O-[2-(5,6,7,8-tetrahydro-1,8-naphthyridin-2-yl)ethyl]-L-tyrosine] | 
2 |  |  | O=C(N[C@@H](Cc1cccc(OCCNc2ccccn2)c1)C(=O)O)c1c(Cl)cccc1Cl [N-(2,6-dichlorobenzoyl)-3-[2-(pyridin-2-ylamino)ethoxy]-L-phenylalanine] | low activity
3 |  |  | O=C(N[C@@H](Cc1cccc(OCCCCNc2ccccn2)c1)C(=O)O)c1c(Cl)cccc1Cl [N-(2,6-dichlorobenzoyl)-3-[4-(pyridin-2-ylamino)butoxy]-L-phenylalanine] | low activity
4 | 8.70 | 7.51 | CNc1cccc(CCCc2ccc(C[C@H](NC(=O)c3c(Cl)cccc3Cl)C(=O)O)s2)n1 [Example 29, N-(2,6-dichlorobenzoyl)-3-(5-{3-[6-(methylamino)pyridin-2-yl]propyl}-2-thienyl)-L-alanine] | 
